Patent US5663152A, “Potentiators for aminoglycosides” (Asahi Kasei Kogyo Kabushiki Kaisha, priority 1995, dated 1997)
Converted amounts (≈) assume the structure as drawn. Like-named read-outs stand apart in the source and are kept apart here.

Tests used:
[1] = test system: Methicillin-resistant Staphylococcus aureus (ATCC 33591); experiment: Minimum inhibitory concentration by broth dilution, MRSA (ATCC 33591); format: cell-based; details: substance alone, 2 days at 37° C.; for MIC: Staphylococcus aureus, 48 h
Text: (§1) Microorganism strains were supplied by the ATCC. Staphylococcus aureus is a clinically significant member of the gram-positive group of bacterial pathogens. It gives rise to serious infections, and may produce bacteremia, endocarditis, and meningitis. Methicillin-resistant strains of Staphylococcus aureus were chosen for evaluation because they present a significant medical problem, in view of the fact that methicillin is the drug of choice for treatment of S. aureus infection in the common penicillin-resistant strains.
(§2) The MICs were determined by the broth dilution method (Kubo et al. J. Agric. Food Chem. 1992, 40, 245-248). Test compounds were dissolved in Di-Methyl Formamide("DMF") to make stock solution at concentrations of 80, 40, 20, or 10 mg/ml depending upon the potency and solubility. An aliquot of 0.01 ml of the stock solution was added to a tube containing 0.99 ml of media to get the initial concentration of testing solution. Serial two-fold dilutions were made by mixing 0.5 ml of testing solution with 0.5 ml of blank medium. A 0.5 ml aliquot of diluted inoculum containing an appropriate concentration of the test microorganism (1:100 dilution of the initial inoculum) was then added into each tube containing 0.5 ml serial dilutions of the test compound. After incubating for 2 days at 37° C., the tube was evaluated for visible growth. The MIC was determined as the lowest concentration of a compound which prevented visible microorganism growth. A culture growth control without compound (solvent only) and several culture sensitive reference agents were used as positive controls. The assays were performed in duplicate.

[2] = test system: Escherichia coli (ATCC 10536); experiment: Minimum biocidal concentration, Escherichia coli (ATCC 10536); format: cell-based; details: for MBC: Escherichia coli
Text: as §1
(§3) Escherichia coli is also a gram-negative pathogenic bacillus which may cause enteritis, peritonitis, or cystitis.
(§4) After determining the MIC, 0.1 ml of a ten-fold dilution from each tube showing no turbidity was plated onto chemical free nutrient agar plates. After 24 hours of incubation, the colonies were counted. The MBC was the lowest concentration of antibacterial compound that decreased the initial inoculum population by >99.9 percent. The initial population for E. coli. was 1×10^7 -6×10^7 colony forming units (CFU) per ml; for P. aeruginosa was 1×10^6 -5×10^6 CFU per ml; and for methicillin-resistant Staphylococcus aureus (MRSA) was 2×10^6 -7×10^6 CFU per ml.

[3] = test system: Escherichia coli (ATCC 10536); experiment: Minimum inhibitory concentration by broth dilution, Escherichia coli (ATCC 10536); format: cell-based; details: for MIC: Escherichia coli, ATCC10536, 48 h, read-out: MIC Alone
Text: as §1, §3, §2

[4] = test system: Methicillin-resistant Staphylococcus aureus (ATCC 33591); experiment: Minimum biocidal concentration, MRSA (ATCC 33591); format: cell-based; details: substance alone, >99.9 percent decrease of inoculum; for MBC: Staphylococcus aureus
Text: as §1, §4

[5] = occurring in foods, routinely consumed in the diet; in words; cited from earlier work
[6] = test system: Pseudomonas aeruginosa (ATCC 10145); experiment: Minimum biocidal concentration, Pseudomonas aeruginosa (ATCC 10145); format: cell-based; details: for MBC: Pseudomonas aeruginosa, ATCC10145, read-out: MBC Alone
Text: as §1
(§5) Pseudomonas aeruginosa was also chosen for evaluation. P. aerugtnosa is a gram-negative pathogenic bacillus which may cause urinary tract infections or pneumonia.
as §4

[7] = test system: Pseudomonas aeruginosa (ATCC 10145); experiment: Minimum inhibitory concentration by broth dilution, Pseudomonas aeruginosa (ATCC 10145); format: cell-based; details: for MIC: Pseudomonas aeruginosa, ATCC10145, 48 h, read-out: MIC Alone
Text: as §1, §5, §2

[8] = test system: aminoglycoside-inactivating enzymes; details: in words; cited from earlier work
[9] = in words; cited from earlier work
[10] = test system: gram-negative and gram-positive organisms; details: in words, cited from earlier work
[11] = read-out: MIC Alone, MRSA ATCC 33591
[12] = read-out: MBC Alone, MRSA ATCC 33591
[13] = MRSA ATCC 33591, read-out: MIC Alone
[14] = MRSA ATCC 33591, read-out: MBC Alone
[15] = E. coli ATCC 10536, substance alone, 2 days at 37° C.

Compound | MIC Alone ([1]; MRSA ATCC 33591) | MIC [1, 11] | MBC ([2]; ATCC10536, read-out: MBC Alone) | MIC [3] | MBC Alone ([4]; MRSA ATCC 33591) | MBC [4, 12] | toxicity of potentiators [5] | MBC [6] | MIC [7] | MIC [1, 13] | side effects [9] | MBC [4, 14] | antibacterial activity in vitro [10] | also measured
CCCC=CC=O [2-Hexenal, 2-hexenal] | 200 µg/mL (≈ 2.04 mM) | 400 µg/mL (≈ 4.08 mM) | 200 µg/mL (≈ 2.04 mM) | 200 µg/mL (≈ 2.04 mM) | 400 µg/mL (≈ 4.08 mM) | 800 µg/mL (≈ 8.15 mM) | routinely consumed in the diet without apparent harm | 200 µg/mL (≈ 2.04 mM) | 200 µg/mL (≈ 2.04 mM) |  |  |  |  | 
NCC[C@H](O)C(=O)N[C@@H]1C[C@H](N)[C@@H](O[C@H]2O[C@H](CN)[C@@H](O)[C@H](O)[C@H]2O)[C@H](O)[C@H]1O[C@H]1O[C@H](CO)[C@@H](O)[C@H](N)[C@H]1O [Amikacin] |  |  |  |  |  |  |  |  |  | 200 µg/mL (≈ 0.342 mM) | strong side effects, such as nephrotoxicity, ototoxicity, or neuromuscular blockade | 200 µg/mL (≈ 0.342 mM) | broad range of activity against gram-negative and gram-positive organisms | degradation by aminoglycoside-inactivating enzymes [8]: resists degradation by most aminoglycoside-inactivating enzymes
CC=Cc1ccc(OC)cc1 [Anethole, anethole] |  |  |  |  |  |  | routinely consumed in the diet without apparent harm |  |  | > 1600 µg/mL |  | > 1600 µg/mL |  | MBC ([2]; ATCC10536, E. coli ATCC 10536, substance alone, >99.9 percent decrease of inoculum, read-out: MBC Alone): 800 µg/mL (≈ 5.4 mM); MIC [3, 15]: 400 µg/mL (≈ 2.7 mM)
c1ccc2[nH]ccc2c1 [Indole, indole] |  | 800 µg/mL (≈ 6.83 mM) | 800 µg/mL (≈ 6.83 mM) | 800 µg/mL (≈ 6.83 mM) |  | 1600 µg/mL (≈ 13.7 mM) | routinely consumed in the diet without apparent harm | 800 µg/mL (≈ 6.83 mM) | 400 µg/mL (≈ 3.41 mM) |  |  |  |  | 
NC[C@H]1O[C@H](O[C@H]2[C@H](O)[C@@H](O[C@H]3O[C@H](CO)[C@@H](O)[C@H](N)[C@H]3O)[C@H](N)C[C@@H]2N)[C@H](N)C[C@@H]1O [Tobramycin] |  |  |  |  |  |  |  |  |  | 800 µg/mL (≈ 1.71 mM) | strong side effects, such as nephrotoxicity, ototoxicity, or neuromuscular blockade | 1600 µg/mL (≈ 3.42 mM) | broad range of activity against gram-negative and gram-positive organisms | mode of action ([10]; in vitro tests): bactericidal and that it acts by interfering with protein synthesis in bacterial cells
Gentamicin [reference compound] | 1.56 µg/mL |  |  |  | 1.56 µg/mL |  |  |  |  |  | strong side effects, such as nephrotoxicity, ototoxicity, or neuromuscular blockade |  |  | MBC Alone ([2]; E. coli ATCC 10536, substance alone, >99.9 percent decrease of inoculum): 0.78 µg/mL; MIC Alone [3, 15]: 0.78 µg/mL; MBC Alone ([6]; P. aeruginosa ATCC 10145, substance alone, >99.9 percent decrease of inoculum): 0.78 µg/mL; MIC Alone ([7]; P. aeruginosa ATCC 10145, substance alone, 2 days at 37° C.): 0.39 µg/mL
